The numbers were not newly measured in US20050042268A1, “Pharmaceutical composition and method for transdermal drug delivery” (priority 2003, published 2005), which cites them from elsewhere.

Turning to `C[C@]12CC[C@H]3[C@@H](CCC4=CC(=O)CC[C@@]43C)[C@@H]1CC[C@@H]2O` [testosterone], the “free testosterone as part of the total concentration in the blood” value is 4 to 8% and the “testosterone in the blood bound to protein” value was “Over 90%”.
